Source: ChEMBL document CHEMBL5036301, “Heteroaryl ether analogues of an antileishmanial 7-substituted 2-nitroimidazooxazine lead afford attenuated hERG risk: In vitro and in vivo appraisal” (Eur J Med Chem, 2021)
Values after ≈ are worked out from the molar mass of the structure shown.

System: MRC5
Assay: Cytotoxicity against human MRC5 cells assessed as cell viability after 72 hrs by fluorimetric analysis
Assay type: ADME, cell-based
Settings: MRC5, 72 h

Compound | IC50 [µM]
CC1(COc2ncc(C(F)(F)F)cc2Cl)CCn2cc([N+](=O)[O-])nc2O1 (stereo not drawn) | > 64
CC1(COc2ccc(F)cc2)CCn2cc([N+](=O)[O-])nc2O1 (stereo not drawn) | > 64
CC1(COc2ccc(C(F)(F)F)cc2)CCn2cc([N+](=O)[O-])nc2O1 (stereo not drawn) | > 64
O=[N+]([O-])c1cn2c(n1)OC(COc1cc(C(F)(F)F)ccn1)CC2 (stereo not drawn) | > 64
CC1(COc2ccc(Cl)nc2)CCn2cc([N+](=O)[O-])nc2O1 (stereo not drawn) | > 64
CC1(COc2ccc(C(F)(F)F)nc2)CCn2cc([N+](=O)[O-])nc2O1 (stereo not drawn) | > 64
CC1(COc2ncc(C(F)(F)F)cc2F)CCn2cc([N+](=O)[O-])nc2O1 (stereo not drawn) | > 64

System: Leishmania infantum
Assay: Antileishmanial activity against Leishmania infantum MHOM/MA(BE)/67 amastigotes infected in macrophages assessed as reduction in parasite burden by giemsa staining based microscopic analysis
Assay type: functional, organism-based
Settings: not given

Compound | IC50 [µM]
CC1(COc2ncc(C(F)(F)F)cc2Cl)CCn2cc([N+](=O)[O-])nc2O1 (stereo not drawn) | 0.26
CC1(COc2ccc(F)cc2)CCn2cc([N+](=O)[O-])nc2O1 (stereo not drawn) | 0.45
CC1(COc2ccc(C(F)(F)F)cc2)CCn2cc([N+](=O)[O-])nc2O1 (stereo not drawn) | 0.16
O=[N+]([O-])c1cn2c(n1)OC(COc1cc(C(F)(F)F)ccn1)CC2 (stereo not drawn) | > 64
CC1(COc2ccc(Cl)nc2)CCn2cc([N+](=O)[O-])nc2O1 (stereo not drawn) | 2.8
CC1(COc2ccc(C(F)(F)F)nc2)CCn2cc([N+](=O)[O-])nc2O1 (stereo not drawn) | 1.9
CC1(COc2ncc(C(F)(F)F)cc2F)CCn2cc([N+](=O)[O-])nc2O1 (stereo not drawn) | 0.47

System: not listed separately
Assay: Stability of compound in human liver microsomes assessed as percentage of parent compound remaining at 1 uM measured after 1 hr
Settings: not given

Compound | remaining at 1 h, 1 µM [%]
CC1(COc2ncc(C(F)(F)F)cc2Cl)CCn2cc([N+](=O)[O-])nc2O1 (stereo not drawn) | 23
CC1(COc2ncc(C(F)(F)F)cc2F)CCn2cc([N+](=O)[O-])nc2O1 (stereo not drawn) | 64

System: Mycobacterium tuberculosis
Assay: Antitubercular activity against Mycobacterium tuberculosis H37Rv assessed as reduction in microbial growth under anaerobic condition by luminescence analysis
Assay type: functional
Settings: not given

Compound | MIC [µM]
CC1(COc2ccc(F)cc2)CCn2cc([N+](=O)[O-])nc2O1 (stereo not drawn) | 5
CC1(COc2ccc(C(F)(F)F)cc2)CCn2cc([N+](=O)[O-])nc2O1 (stereo not drawn) | 4.1
CC1(COc2ccc(C(F)(F)F)nc2)CCn2cc([N+](=O)[O-])nc2O1 (stereo not drawn) | 33

System: not listed separately
Assay: AUClast in mouse at 1 mg/kg, iv measured upto 24 hrs LC-MS/MS analysis
Settings: in vivo

Compound | AUC(0-t) at 24 h [µg·h/mL]
CC1(COc2ccc(C(F)(F)F)nc2)CCn2cc([N+](=O)[O-])nc2O1 (stereo not drawn) | 4

System: not listed separately
Assay: Selectivity index, ratio IC50 for cytotoxicity against human MRC5 cells to IC50 for antileishmanial activity against Leishmania infantum MHOM/MA(BE)/67 amastigotes infected in macrophages
Settings: not given

Compound | selectivity ratio
CC1(COc2ncc(C(F)(F)F)cc2Cl)CCn2cc([N+](=O)[O-])nc2O1 (stereo not drawn) | > 246
CC1(COc2ccc(F)cc2)CCn2cc([N+](=O)[O-])nc2O1 (stereo not drawn) | > 142
CC1(COc2ccc(C(F)(F)F)cc2)CCn2cc([N+](=O)[O-])nc2O1 (stereo not drawn) | > 400
CC1(COc2ccc(Cl)nc2)CCn2cc([N+](=O)[O-])nc2O1 (stereo not drawn) | > 23
CC1(COc2ncc(C(F)(F)F)cc2F)CCn2cc([N+](=O)[O-])nc2O1 (stereo not drawn) | > 136

System: not listed separately
Assay: in vivo
Settings: mouse, po, 25 mg/kg

Compound | Cmax at 24 h [µg/mL]
CC1(COc2ccc(C(F)(F)F)nc2)CCn2cc([N+](=O)[O-])nc2O1 (stereo not drawn) | 11

System: Trypanosoma cruzi
Assay: Antitrypanosomal activity against Trypanosoma cruzi Tulahuen CL2 infected in human MRC-5 cells assessed as parasite growth
Assay type: functional, organism-based
Settings: Tulahuen CL2, MRC5

Compound | IC50 [µM]
CC1(COc2ncc(C(F)(F)F)cc2Cl)CCn2cc([N+](=O)[O-])nc2O1 (stereo not drawn) | 0.29
CC1(COc2ccc(F)cc2)CCn2cc([N+](=O)[O-])nc2O1 (stereo not drawn) | 0.45
CC1(COc2ccc(C(F)(F)F)cc2)CCn2cc([N+](=O)[O-])nc2O1 (stereo not drawn) | 0.15
O=[N+]([O-])c1cn2c(n1)OC(COc1cc(C(F)(F)F)ccn1)CC2 (stereo not drawn) | 1
CC1(COc2ccc(Cl)nc2)CCn2cc([N+](=O)[O-])nc2O1 (stereo not drawn) | 0.93
CC1(COc2ccc(C(F)(F)F)nc2)CCn2cc([N+](=O)[O-])nc2O1 (stereo not drawn) | 0.78
CC1(COc2ncc(C(F)(F)F)cc2F)CCn2cc([N+](=O)[O-])nc2O1 (stereo not drawn) | 0.73

System: not listed separately
Assay: Stability of compound in CD-1 mouse liver microsomes assessed as percentage of parent compound remaining at 1 uM measured after 1 hr
Settings: not given

Compound | remaining at 1 h, 1 µM [%]
CC1(COc2ncc(C(F)(F)F)cc2Cl)CCn2cc([N+](=O)[O-])nc2O1 (stereo not drawn) | 14
CC1(COc2ncc(C(F)(F)F)cc2F)CCn2cc([N+](=O)[O-])nc2O1 (stereo not drawn) | 44

System: not listed separately
Assay: Clearance in mouse at 1 mg/kg, iv measured upto 24 hrs LC-MS/MS analysis
Settings: in vivo

Compound | clearance at 24 h [L/h/kg]
CC1(COc2ccc(C(F)(F)F)nc2)CCn2cc([N+](=O)[O-])nc2O1 (stereo not drawn) | 0.246

System: Mycobacterium tuberculosis
Assay: Antitubercular activity against Mycobacterium tuberculosis H37Rv assessed as reduction in microbial growth under aerobic condition by luminescence analysis
Assay type: functional
Settings: not given

Compound | MIC [µM]
CC1(COc2ccc(F)cc2)CCn2cc([N+](=O)[O-])nc2O1 (stereo not drawn) | 1.3
CC1(COc2ccc(C(F)(F)F)cc2)CCn2cc([N+](=O)[O-])nc2O1 (stereo not drawn) | 0.8
CC1(COc2ccc(C(F)(F)F)nc2)CCn2cc([N+](=O)[O-])nc2O1 (stereo not drawn) | 66

System: Leishmania donovani
Assay: Antileishmanial activity against Leishmania donovani amastigotes infected in mouse J774A.1 cells incubated for 72 hrs by luciferase assay
Assay type: functional, organism-based
Settings: J774.A1, 72 h

Compound | IC50 [µM]
CC1(COc2ccc(F)cc2)CCn2cc([N+](=O)[O-])nc2O1 (stereo not drawn) | 0.29
CC1(COc2ccc(C(F)(F)F)cc2)CCn2cc([N+](=O)[O-])nc2O1 (stereo not drawn) | 0.16
CC1(COc2ccc(Cl)nc2)CCn2cc([N+](=O)[O-])nc2O1 (stereo not drawn) | 0.86
CC1(COc2ccc(C(F)(F)F)nc2)CCn2cc([N+](=O)[O-])nc2O1 (stereo not drawn) | 0.09

System: not listed separately
Assay: AUClast in mouse at 25 mg/kg, po measured upto 24 hrs LC-MS/MS analysis
Settings: in vivo

Compound | AUC(0-t) at 24 h [µg·h/mL]
CC1(COc2ccc(C(F)(F)F)nc2)CCn2cc([N+](=O)[O-])nc2O1 (stereo not drawn) | 41.8

Biological target: hERG (KCNH2) (Homo sapiens, UniProt Q12809)
Sequence (Q12809 whole entry): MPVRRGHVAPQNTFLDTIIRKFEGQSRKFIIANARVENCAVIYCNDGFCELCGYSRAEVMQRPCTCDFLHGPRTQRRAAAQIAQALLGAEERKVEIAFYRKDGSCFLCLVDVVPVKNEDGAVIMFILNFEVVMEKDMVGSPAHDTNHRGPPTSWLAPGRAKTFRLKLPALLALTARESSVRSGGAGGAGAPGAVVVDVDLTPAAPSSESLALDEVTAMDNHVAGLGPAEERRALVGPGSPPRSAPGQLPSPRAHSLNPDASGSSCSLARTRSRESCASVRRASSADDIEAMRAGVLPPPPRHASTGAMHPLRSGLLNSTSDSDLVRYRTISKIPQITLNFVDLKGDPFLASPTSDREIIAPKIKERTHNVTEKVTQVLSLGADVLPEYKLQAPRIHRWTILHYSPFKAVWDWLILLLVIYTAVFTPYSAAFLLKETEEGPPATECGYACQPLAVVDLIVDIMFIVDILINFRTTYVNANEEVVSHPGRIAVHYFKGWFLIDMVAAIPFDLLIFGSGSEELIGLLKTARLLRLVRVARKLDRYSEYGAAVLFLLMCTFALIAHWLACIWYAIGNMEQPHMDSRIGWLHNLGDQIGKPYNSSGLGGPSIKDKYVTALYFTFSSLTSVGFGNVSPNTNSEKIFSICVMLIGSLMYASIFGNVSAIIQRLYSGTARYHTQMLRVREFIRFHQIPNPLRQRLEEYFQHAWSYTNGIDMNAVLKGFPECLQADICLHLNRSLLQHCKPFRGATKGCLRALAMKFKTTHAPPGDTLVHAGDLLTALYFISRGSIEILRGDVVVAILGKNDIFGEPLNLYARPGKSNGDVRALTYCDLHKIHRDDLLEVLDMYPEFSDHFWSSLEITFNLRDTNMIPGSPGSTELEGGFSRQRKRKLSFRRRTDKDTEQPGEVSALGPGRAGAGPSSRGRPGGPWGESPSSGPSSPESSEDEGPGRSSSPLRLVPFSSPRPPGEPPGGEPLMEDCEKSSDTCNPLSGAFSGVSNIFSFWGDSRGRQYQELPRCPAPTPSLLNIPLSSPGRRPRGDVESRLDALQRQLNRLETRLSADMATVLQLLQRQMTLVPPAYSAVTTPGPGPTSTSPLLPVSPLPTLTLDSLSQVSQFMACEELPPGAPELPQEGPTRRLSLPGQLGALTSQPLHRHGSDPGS
Assay: Inhibition of human ERG expressed in HEK293 cells at 10 uM relative to control
Assay type: cell-based
Settings: HEK293 cells expressing human ERG

Compound | inhibition at 10 µM [%]
CC1(COc2ccc(C(F)(F)F)nc2)CCn2cc([N+](=O)[O-])nc2O1 (stereo not drawn) | 17

System: not listed separately
Assay: Stability of compound in hamster liver microsomes assessed as percentage of parent compound remaining at 1 uM measured after 1 hr
Settings: chinese hamster

Compound | remaining at 1 h, 1 µM [%]
CC1(COc2ncc(C(F)(F)F)cc2Cl)CCn2cc([N+](=O)[O-])nc2O1 (stereo not drawn) | 0
CC1(COc2ncc(C(F)(F)F)cc2F)CCn2cc([N+](=O)[O-])nc2O1 (stereo not drawn) | 0.4

System: not listed separately
Assay: Volume of distribution at steady state in mouse at 1 mg/kg, iv measured upto 24 hrs LC-MS/MS analysis
Settings: in vivo

Compound | Vd at 24 h [L/kg]
CC1(COc2ccc(C(F)(F)F)nc2)CCn2cc([N+](=O)[O-])nc2O1 (stereo not drawn) | 0.46

System: not listed separately
Assay: Kinetic solubility of compound in water at pH7 by HPLC analysis
Settings: pH 7

Compound | solubility kinetic [mg/mL]
CC1(COc2ncc(C(F)(F)F)cc2Cl)CCn2cc([N+](=O)[O-])nc2O1 (stereo not drawn) | 0.011 (≈ 28 µM)
CC1(COc2ccc(C(F)(F)F)nc2)CCn2cc([N+](=O)[O-])nc2O1 (stereo not drawn) | 0.0073 (≈ 20.4 µM)
CC1(COc2ncc(C(F)(F)F)cc2F)CCn2cc([N+](=O)[O-])nc2O1 (stereo not drawn) | 0.013 (≈ 34.6 µM)

System: not listed separately
Assay: Half life in mouse at 1 mg/kg, iv measured upto 24 hrs LC-MS/MS analysis
Settings: in vivo

Compound | half-life at 24 h [h]
CC1(COc2ccc(C(F)(F)F)nc2)CCn2cc([N+](=O)[O-])nc2O1 (stereo not drawn) | 1.5

System: not listed separately
Assay: in vivo
Settings: mouse, po, 25 mg/kg
Remark: another data set of the same source

Compound | Tmax at 24 h [h]
CC1(COc2ccc(C(F)(F)F)nc2)CCn2cc([N+](=O)[O-])nc2O1 (stereo not drawn) | 1

System: not listed separately
Assay: Initial plasma concentration in mouse at 1 mg/kg, iv measured upto 24 hrs LC-MS/MS analysis
Settings: not given

Compound | C0 at 24 h [µg/mL]
CC1(COc2ccc(C(F)(F)F)nc2)CCn2cc([N+](=O)[O-])nc2O1 (stereo not drawn) | 1.6

System: Leishmania donovani
Assay: Antileishmanial activity against Leishmania donovani amastigotes infected in BALB/C mouse assessed as reduction in parasite burden in liver tissue at 50 mg/kg, po administered once per day for 5 days relative to control
Assay type: functional
Settings: 120 h, time 5 day

Compound | inhibition in vivo at 50 mg/kg [%]
CC1(COc2ncc(C(F)(F)F)cc2Cl)CCn2cc([N+](=O)[O-])nc2O1 (stereo not drawn) | 0
CC1(COc2ccc(C(F)(F)F)nc2)CCn2cc([N+](=O)[O-])nc2O1 (stereo not drawn) | 42
CC1(COc2ncc(C(F)(F)F)cc2F)CCn2cc([N+](=O)[O-])nc2O1 (stereo not drawn) | 56

System: not listed separately
Assay: in vivo
Settings: mouse, po, 25 mg/kg
Remark: another data set of the same source

Compound | bioavailability at 24 h [%]
CC1(COc2ccc(C(F)(F)F)nc2)CCn2cc([N+](=O)[O-])nc2O1 (stereo not drawn) | 84
